According to patent US12611392B2, “Mitochondria-targeting antioxidants” (GIVAUDAN SA, priority 2019, dated 2026):
Read-outs that look alike come from different tables or passages of the source.

Key:
[1] = Partition between octan-1-ol and aqueous solution at pH 7.0 (log P / log D); conditions: for partition in octan-1-ol: octan-1-ol / water pH 7.0; for share in the aqueous phase: octan-1-ol / water
Method: In a 10-mL glass tube, two milligrams of sinapine, sinapic acid or MitoTEMPO were added by 4 mL of a 75 mM KH2PO4 buffer solution (aqueous phase), and 4 mL of octan-1-ol. The mixture was then vortexed for 1 hour at room temperature and left to equilibrate for 30 min for sinapic acid and sinapine, and overnight for MitoTEMPO. Both phases were collected with a Pasteur pipette and extemporaneously analyzed by LC-MS using the procedure described below in section 2.7.
The partition coefficient of sinapine, sinapic acid and MitoTEMPO (a commercially-available mitonchondria-targeting superoxide dismutase (SOD) mimetic) between two immiscible liquid phases (octan-1-ol and an aqueous solution at pH 7.0) was measured.

[2] = system: ROS production in cardiac tissue; assay: ROS production by dihydroethidium (DHE) staining of cardiac tissue after ischemia-reperfusion; parameters: species or system rat; conditions: 10 min after IR; for reduction of DHE fluorescence compared to control hearts: MitoT 0.1 μM, sinapine 60 μM
Method: LV samples were embedded in Optimal Cutting Temperature (OCT from Tissue-Tek) and flash-frozen in liquid nitrogen. Frozen sections were covered with 10 μM DHE and incubated in alight-protected humidified chamber at 37° C. for 5 min. Images were obtained with a fluorescence microscope (Olympus BX60, Excitation: 488 nm; emission: 610 nm) at the Imaging facility 3A INRA/University of Avignon. SOD-mimetic TEMPOL (10 mM, Santa Cruz Biotechnology) was used as a negative control to confirm that the signals resulted from ROS production.

cardiomyocytes = assay: Cytosol/mitochondria partitioning in cardiomyocytes by LC-MS/MS
Method: (§1) Ventricular cardiomyocytes were isolated from 200-250 g male adult Wistar rats as previously described (Cazorla et al. Transmural stretch-dependent regulation of contractile properties in rat heart and its alteration after myocardial infarction. FASEB J. 2005, 19, 88-90). The rats were anesthetized by i.p. injection of pentobarbital sodium (100 mg/kg) with heparin (100 U). The heart was rapidly excised, rinsed in ice-cold Hanks-HEPES buffer (in mM: NaCl 117, KCl 5.7. NaHCO3 4.4, KH2PO4 1.5. MgCl2 1.7, HEPES 21, glucose 11.7, taurine 20. pH at 7.15) mounted on a Langendort perfusion system and perfused (3 mi/min, at 37° C.) first with a Hanks-HEPES buffer for 5 min to be cleared from blood, then with a buffer supplemented with 1.2 mg/mL collagenase type 4 (Worthington, Lakewood, N.J., USA) for 13-18 min. Small pieces of left ventricle were dissected and mechanically dissociated. […] Experiments were performed in Tyrode solution with 1.8 mM Ca^2+.
Antioxidants were also quantified in cardiomyocytes using LC-MS/MS. Cardiomyocytes (100,000 cells/mL) were incubated in Tyrode for 1 or 2 h with different concentrations of sinapine (2, 20, and 60 μM) or sinapic acid (Sigma Aldrich, 2, 20, and 60 μM). Extracellular, cytosolic and mitochondrial fractions were obtained and frozen in liquid nitrogen until HPLC measurement. After incubation, cells were sedimented and the supernatant collected for the extracellular fraction. The pellet of cells was rinsed twice in Tyrode. Cells were incubated with PBS containing digitonine (5 mg/mL) for 10 min on ice. Cells were centrifugated at 10,000 g for 20 min at 4° C., and the supernatant consisting in the cytosolic fraction was collected. The mitochondrial fraction was collected after rinsing five times the pellets in PBS to avoid contamination of the cytosolic fraction.
These different fractions were then analyzed using an Agilent Poroshell EC-C18 120, 2.7 microns, 2.1×150 mm analytical column on an Agilent 1290 Infinity II series pump. Injection volume was 1 μL. HPLC flow rate was 0.3 mL/min with the following mobile phases: water with 0.1% formic acid (A) and acetonitrile with 0.1% formic acid (B). The gradient was as follows: 0.0-3.0 min 0-30% B, 3.0-7.0 min 30-60% B, then a stabilization step of 4 min at the initial condition. Autosampler tray temperature was set to 10° C. and column temperature was set to 25° C. Detection was performed with an Agilent 6420 triple quadrupole in positive ionization mode with ESI source, gas temperature 325° C., gas flow 9 L/min, nebulizer 35 psi, and capillary voltage 3500 V. Mass spectrometer was working in MRM mode acquisition following the specific transition for Isoproturon-d3 (internal standard 210.2→75.0), Sinapine 310.2→251.1 (qualifier 175.0 and 91.0) and Sinapic acid 225.1→207.0 (qualifier 91.0 and 65.0).
To further evaluate if a positively charged moiety (such as choline) can endowed an antioxidant devoid of any lipid affinity with the ability to accumulate in mitochondria, we incubated sinapine and sinapic acid (lacking the choline group, i.e. negative control) in intact cardiomyocytes at three concentrations (2, 20, and 60 μM) for 1 or 2 h. Then, the mitochondrial fraction was separated from the cytosolic one using differential centrifugation. The levels of sinapine and sinapic acid were measured in each subcellular fraction using LC-MS/MS.

[3] = system: isolated adult cardiomyocytes; conditions: male, Wistar, rat, 2 μM
Method: as §1

[4] = Oxygen radical absorbance capacity (ORAC) assay; conditions: aqueous solution; n=4
Text: (§2) The result of this operation gave the net area under the curve (AUC) which was then plotted on a graph as a function of the concentration.

[5] = system: ROS production in isolated adult rat cardiomyocytes; assay: H2O2 and antimycin A-induced oxidative stress in cardiomyocytes (H2DCF-DA and DHR123 probes); type: cell-based; conditions: for effect on H2O2-induced increase in H2DCF-DA fluorescence (cytosolic ROS): 0.1 mM H2O2, 1 h pre-incubation; for effect on H2O2-induced increase in H2DCF-DA fluorescence (cytosolic ROS) / effect of pre-incubation on basal H2DCF-DA and DHR123 fluorescence: sinapic acid 60 μM; for effect of pre-incubation on basal H2DCF-DA and DHR123 fluorescence: control (basal) cells, no stress, sinapine 6 or 60 μM, 1 h
Method: Cardiomyocytes (30,000 cell/mL) were incubated with sinapine or sinapic acid for 1 h. Thirty minutes before the end, a fluorogenic probe was added. We used dihydrorhodamine 123 (DHR123) to probe mitochondrial H2O2 and peroxynitrites (Invitrogen Molecular probes Fischer scientific, D23806, Ex/Em: 508/529 nm, concentration=5 μM) and 2′,7′-dichlorodihydrofluorescein diacetate (H2DCF-DA) to probe cytosolic H2O2(Invitrogen Molecular probes Fischer scientific, D399 Ex/Em: 492/517 nm, concentration=5 μM). Cells were rinsed with a Tyrode solution and distributed in microplates for the various conditions. Some cells were stimulated with 0.1 mM H2O2(Sigma Aldrich) or with a 10 μM complex III blocker, antimycin A (AA, Sigma Aldrich) to force the cell to produce mitochondrial ROS. The microplate was immediately transferred to the microplate reader Tecan Infinite M200Pro. Fluorescence was measured at the different wavelengths every 5 min for 30 min.
Two different ROS sensitive fluorogenic probes were used, H2DCF-DA and DHR123, which are specific of cytosolic and mitochondrial ROS production, respectively (Wei et al. Nitric oxide induces oxidative stress and apoptosis in neuronal cells. Biochim. Biophys. Acta-Mol. Cell Res. 2000, 1498, 72-79; Rego et al. Influence of the antioxidants vitamin E and idebenone on retinal cell injury mediated by chemical ischemia, hypoglycemia, or oxidative stress. Free Rad Biol. Med. 1999, 26, 1405-1417; Mark et al. Basic FGF attenuates amyloid β-peptide-induced oxidative stress, mitochondrial dysfunction, and impairment of Na+/K+-ATPase activity in hippocampal neurons. Brain Res. 1997, 756, 205-214).
Myocytes loaded with one of the probes were distributed in microplate wells. ROS production was determined by following the increase of fluorescence for […]. Fluorescence was measured every 5 min and was normalized by the baseline fluorescence (T0). Some cells were incubated with either sinapine (6 or 60 μM) or sinapic acid (60 μM) for 1 h prior measurement. After the incubations, cells were washed out. Some cells were stimulated with 0.1 mM H2O2 or with a mitochondrial electron transport chain complex III blocker, 10 μM antimycin A (AA) to force mitochondria to produce mitochondrial ROS (Quinlan et al. The mechanism of superoxide production by the antimycin-inhibited mitochondrial Q-cycle. J. Biol. Chem. 2011, 286, 31361-31372).

[6] = Plasmatic and tissular levels after oral administration of sinapine; type: in vivo, rat; conditions: oral sinapine 200 mg/kg; for level in cytosolic and mitochondrial fractions of the heart: 120 min post-gavage; for plasmatic level: 10, 30, 60, 120 min
Method: To evaluate plasmatic and tissular bioavailability of sinapine, rats received 200 mg/kg of sinapine by oral gavage. […] Sinapine and sinapic acid were then quantified in plasma using the following procedure: plasma (50 μL) is mixed with internal standard solution (50 μL in methanol at 10 ng/mL) and mix on a vortex for 1 minute. The solution is then centrifuge for 3 minutes at 12000 rpm, and the supernatant injected into HPLC/MS for quantification. At the end of the procedure the animals were sacrificed and hearts quickly removed. The right ventricle cleaned and LV samples frozen in liquid nitrogen. LV tissue was homogenized in 2 mL of mitochondria isolation buffer (pH 7.2; in mM: 300 saccharose, 5 TES. 0.2 EGTA), using a Polytron (Ultra Turrax T25, IKA Labortechnik). The homogenate was centrifugated at 1,000 g for 10 min at 4° C. To separate cytosolic fraction from the mitochondrial one, the supernatant was centrifugated at 12,000 g for 15 min to 4° C., then collected (cytosolic fraction), while the pellet was collected for mitochondria fraction. To optimize the release of mitochondria materials, the pellet was homogenized in 2% Triton-X lysis buffer during 10 min on ice. To remove Triton-X, mitochondrial fraction was washed, then centrifuged (12,000 g for 15 min at 4° C.) and the pellet was resuspended in mitochondria isolation buffer. Cytosolic and mitochondria fraction obtained were quickly frozen in liquid nitrogen until HPLC measurement. To do so, mitochondria was extracted with the same procedure as for plasma procedure. Cytosol (50 μL) was pipetted into 10 mL volumetric flask, spiked successively with internal standard solution (200 μL at 250 ng/mL in methanol) and 5 mL of methanol-water (50/50 v:v). The flask was ultrasonicated for 5 min, and once cooled down, completed to 10 mL with methanol-water (50/50 v:v). Both the mitochondrial and the cytosolic fractions were analyzed with the LC-MS/MS procedure described above.
After 120 min post-gavage, the heart was removed, rinsed and quickly frozen in liquid nitrogen.

[7] = Conjugated autoxidizable triene (CAT) assay; conditions: oil-in-water microemulsion; n=3
Text: as §2

[8] = cited from earlier work
[9] = 2, 20 and 60 μM, 1 or 2 h incubation

## CC1(C)CC(NC(=O)C[P+](c2ccccc2)(c2ccccc2)c2ccccc2)CC(C)(C)N1[O] [MitoTEMPO]
[1]; octan-1-ol / aqueous buffer, experimental
  log D (pH 7.0): 0.0
[1]; octan-1-ol / aqueous phase, pH 7.0
  partitioning in both phases: 50/50
[1]
  partition in octan-1-ol: 50%
[2]
  reduction of DHE fluorescence compared to control hearts: 24%

## COc1cc(/C=C/C(=O)OCC[N+](C)(C)C)cc(OC)c1O [sinapine]
cardiomyocytes; [9]
  level of the incubated compound in cytosol: detected sinapine in a dose dependent manner
  level of the incubated compound in mitochondria: detected in a dose-dependent manner in mitochondria
cardiomyocytes; after 1 or 2 h
  share of sinapine entering the mitochondria that is hydrolyzed to sinapic acid: approximately 25%
cardiomyocytes; no time-dependency between 1 and 2 h
  time of entry into cardiac cells: within an hour
cardiomyocytes; sinapine incubation 1 or 2 h
  hydrolysis of sinapine in cytosol (sinapic acid not detected): no major sinapine hydrolysis
[3]
  time after which fluorescence increased: 10 to 15 min
[4]
  ORAC value: 2.28±0.25 mol of Trolox equivalent per mol of compound
[5]; 10 μM antimycin A, 1 h pre-treatment
  effect on antimycin A-induced increase in DHR123 fluorescence (mitochondrial ROS): prevented by sinapine
[5]; sinapine 6 and 60 μM
  effect on H2O2-induced increase in H2DCF-DA fluorescence (cytosolic ROS): prevented the increase in H2DCF-DA
  dose dependence of the effect on H2O2-induced H2DCF-DA increase: dose-dependent
[5]
  effect of pre-incubation on basal H2DCF-DA and DHR123 fluorescence: no impact on the fluorescence level
[6]
  level in cytosolic and mitochondrial fractions of the heart: detected and quantified in both the cytosol and mitochondria
  plasmatic level: detected at all time points at a relatively stable level
[1]
  share in the aqueous phase: > 99%
  partition in octan-1-ol: < 0.2%
[1]; pH 7
  logD: -3
  logP: -3
[2]
  reduction of DHE fluorescence compared to control hearts: 45%

## COc1cc(/C=C/C(=O)O)cc(OC)c1O [sinapic acid]
cardiomyocytes
  time of entry into cardiac cells: within an hour
[4]
  ORAC value: 2.73±0.176 mol of Trolox equivalent per mol of compound
[5]; sinapine 6 and 60 μM
  effect on H2O2-induced increase in H2DCF-DA fluorescence (cytosolic ROS): prevented the increase in H2DCF-DA
[5]
  effect of pre-incubation on basal H2DCF-DA and DHR123 fluorescence: no impact on the fluorescence level
[6]; 2 h period
  plasma amount of sinapic acid relative to sinapine: about five times more sinapic acid than sinapine
[6]
  level in cytosolic and mitochondrial fractions of the heart: not found in any of the fractions
  plasmatic level: detected at all time points at a relatively stable level
[7]
  CAT value: 1.74±0.07 mol of Trolox equivalent per mol of compound
[1]; octan-1-ol / aqueous solution at pH 7.0
  log P: −0.9
[1]
  share in the aqueous phase: > 85%
[2]; sinapic acid 60 μM, not significant (p=0.12)
  ROS production (DHE) versus Ctrl: −20%

## COC1=C(OC)C(=O)C(CCCCCCCCCC[P+](c2ccccc2)(c2ccccc2)c2ccccc2)=C(C)C1=O.CS(=O)(=O)[O-] [MitoQ10]
[8]
  log D/log P (pH 7.0): 3.4

## COC1=C(OC)C(=O)C(CCCCC[P+](c2ccccc2)(c2ccccc2)c2ccccc2)=C(C)C1=O [MitoQ5]
[8]
  log D/log P (pH 7.0): 1.1

## COC1=C(OC)C(=O)C(CCC[P+](c2ccccc2)(c2ccccc2)c2ccccc2)=C(C)C1=O [MitoQ3]
[8]
  log D/log P (pH 7.0): 0.5
